± gives the expanded uncertainty stated by the source.
Details: Crystal; DSC

Triple point temperature: 295.75 ± 2 K
SMILES: CC(C)(N)CO [2-amino-2-methylpropan-1-ol]

Source: the NIST ThermoML archive (doi:10.1021/acs.jced.8b01220)
